Here are results for eleven molecules from patent US20240067665A1, “SMALL MOLECULES FOR BORON NEUTRON CAPTURE THERAPY” (Aviko Radiopharmaceuticals, LLC, priority 2022, published 2024).

The structures appear in SMILES notation.

Common to all, as to conditions: 100 uM
Experiment [1] relates to B16F10. The experiment is described as follows: Cell uptake assay, B16F10 cells. The class given is cell-based, mouse. The protocol:
(§1) • 1.1.1 15 mL of cell culture medium was placed into a T225 flask. • 1.1.2 The flask was placed in a humidified 37° C., 5% CO2 incubator for 15 minutes to allow medium to equilibrate to the proper pH and temperature. • 1.1.3 The vial was removed from liquid nitrogen and thawed rapidly by placing at 37° C. in a water bath with gentle agitation for 1-2 minutes and then decontaminated by wiping with 70% ethanol before opening in a Class II biological safety cabinet. • 1.1.4 The vial contents were transferred dropwise into 10 mL of cell culture medium in a sterile 15 mL conical tube. • 1.1.5 The cells were centrifuged at 1,300 rpm for 5 minutes. • 1.1.6 The supernatant was aspirated and re-suspended the cells and transferred the cells into T225 flask containing cell culture medium.
(§2) • 1.2.1 Culture medium were renewed every 2-3 days. • 1.2.2 Keep the flask in a humidified 37° C., 5% CO2 incubator
(§3) • Cells were harvested and diluted in culture medium to the designated concentration. Then the cells were cultured in T25 flasks, one T25 flask for one sample. 2.2 Formulation of test compounds • 2.2.1 L-Boronophenylalanine (L-BPA, 4-boron-L-phenylalanine, Purity: 95%, Chemical formula: C9H12BNO4, MW: 209.01, CAS: 76410-58-7) and fructose were dissolved in PBS at a molar ratio of 1:5, and then a 1.27 M ratio of 1 N NaOH is added. The mixture was stirred until L-BPA is completely dissolved, and the pH value was titrated to 7.2-7.4 with 1 N HC1. • 2.2.2 For test compounds other than BPA, stock solutions were prepared of each compound in DMSO or fructose formulation at a concentration of 20 mM (such that final % DMSO in the cellular assay medium=0.5%) 2.3 Compound treatment • 2.3.1 The cells were seeded overnight (12-18 hours) to allow the cells to adhere well. • 2.3.2 The stock solution of each compound was added to each T25 flask such that the final concentration for each compound is 100 uM (0.1 mM). • 2.3.3 The flasks were placed in a 37° C., 5% CO2 incubator for 1 hour, 4 hours and 24 hours. • 2.3.4 After treatment for 1 hour, 4 hour, and 24 hours, the cells were collected by using 0.25% Trypsin with 0.53 mM EDTA. • 2.3.5 Centrifuged at 1,300 rpm for 5 min to collect cell pellets.

The test system of experiment [2] is NIH-3T3. Briefly: Cell uptake assay, NIH-3T3 cells. The class given is cell-based, mouse. The protocol: as §1, §2, §3
Experiment [3] deals with U87-MG (glioblastoma). The experiment is described as follows: Cell uptake assay, U87-MG cells. The format is cell-based, human. As to the method:
as §1, §2, §3

Experiment [4] has as its system SAS (head & neck cancer). Briefly: Cell uptake assay, SAS cells. The format is cell-based, human. The protocol:
as §1, §2, §3

Consider `NC(Cc1ccc(CCB(O)O)cc1F)C(=O)O` (single isomer, unassigned) [compound 8, (S*)-2-amino-3-(4-(2-boronoethyl)-2-fluorophenyl)propanoic acid], for which the “Cell uptake, Mean, B16F10” value in experiment [1] (1 hour) was 26.9 ng/10^6 cell; in experiment [1] (4 hours), 31.4 ng/10^6 cell. In addition, the “Cell uptake, Mean, NIH-3T3” value in experiment [2] (1 hour) amounted to 14.7 ng/10^6 cell; in experiment [2] (4 hours), 26.4 ng/10^6 cell. Besides, the entries for the “Cell uptake, Mean, U87-MG” value in experiment [3] (1 hour), in experiment [3] (4 hours) and in experiment [3] (24 hours) were 16.7 ng/10^6 cell, 31.1 ng/10^6 cell and 16.3 ng/10^6 cell, respectively. Besides, the “Cell uptake, Mean, SAS” value in experiment [4] (1 hour) was determined as 44.6 ng/10^6 cell; in experiment [4] (4 hours), 66.7 ng/10^6 cell; in experiment [4] (24 hours), 359 ng/10^6 cell.

Take `NC(Cc1ccc(CCB(O)O)cc1F)C(=O)O` (single isomer, unassigned) [compound 9, (R*)-2-amino-3-(4-(2-boronoethyl)-2-fluorophenyl)propanoic acid]: the “Cell uptake, Mean, B16F10” value in experiment [1] (4 hours) amounted to 66.7 ng/10^6 cell; in experiment [1] (24 hours), 119 ng/10^6 cell. Moreover, the “Cell uptake, Mean, NIH-3T3” value is 34.4 ng/10^6 cell in experiment [2] (1 hour), 43.0 ng/10^6 cell in experiment [2] (4 hours) and 37.2 ng/10^6 cell in experiment [2] (24 hours). In addition, the “Cell uptake, Mean, U87-MG” value in experiment [3] (1 hour) is given as 90.1 ng/10^6 cell; in experiment [3] (24 hours) it was 74.6 ng/10^6 cell. In addition, the “Cell uptake, Mean, SAS” value turned out to be 129 ng/10^6 cell in experiment [4] (1 hour), 103 ng/10^6 cell in experiment [4] (4 hours) and 211 ng/10^6 cell in experiment [4] (24 hours).

Consider `N[C@@H](Cc1cccc(OCB(O)O)c1)C(=O)O` [compound 1, (S)-2-amino-3-(3-(boronomethoxy)phenyl)propanoic acid], for which the “Cell uptake, Mean, B16F10” value turned out to be 112 ng/10^6 cell in experiment [1] (1 hour), 232 ng/10^6 cell in experiment [1] (4 hours) and 517 ng/10^6 cell in experiment [1] (24 hours). The “Cell uptake, Mean, NIH-3T3” value in experiment [2] (1 hour) was determined as 127 ng/10^6 cell; in experiment [2] (4 hours) it was 194 ng/10^6 cell; in experiment [2] (24 hours) it was 133 ng/10^6 cell. In addition, the “Cell uptake, Mean, U87-MG” value in experiment [3] (1 hour) is recorded as 227 ng/10^6 cell; in experiment [3] (4 hours), 233 ng/10^6 cell; in experiment [3] (24 hours) it was 336 ng/10^6 cell. For the same molecule, the “Cell uptake, Mean, SAS” value in experiment [4] (4 hours) is reported as 755 ng/10^6 cell; in experiment [4] (24 hours), 828 ng/10^6 cell.

On to `N[C@@H](Cc1ccc(OCB(O)O)cc1F)C(=O)O` [compound 2, (S)-2-amino-3-(4-(boronomethoxy)-2-fluorophenyl)propanoic acid], for which the figures for the “Cell uptake, Mean, B16F10” value in experiment [1] (1 hour), in experiment [1] (4 hours) and in experiment [1] (24 hours) were 151 ng/10^6 cell, 333 ng/10^6 cell and 881 ng/10^6 cell, respectively. In addition, the “Cell uptake, Mean, NIH-3T3” value in experiment [2] (24 hours) was found to be 205 ng/10^6 cell. For the same molecule, the “Cell uptake, Mean, U87-MG” value is reported as 123 ng/10^6 cell in experiment [3] (1 hour) and 626 ng/10^6 cell in experiment [3] (24 hours). The entries for the “Cell uptake, Mean, SAS” value in experiment [4] (1 hour), in experiment [4] (4 hours) and in experiment [4] (24 hours) were 1125 ng/10^6 cell, 1590 ng/10^6 cell and 1595 ng/10^6 cell, respectively.

For the molecule `N[C@@H](Cc1ccc(OCCB(O)O)cc1)C(=O)O` [compound 3, (2S)-2-amino-3-{4-[2-(dihydroxyboranyl)ethoxy]phenyl}propanoic acid], the “Cell uptake, Mean, B16F10” value in experiment [1] (1 hour) amounted to 145 ng/10^6 cell; in experiment [1] (4 hours), 222 ng/10^6 cell; in experiment [1] (24 hours) it was 117 ng/10^6 cell. For the same molecule, the “Cell uptake, Mean, NIH-3T3” value in experiment [2] (1 hour) is 132 ng/10^6 cell; in experiment [2] (4 hours) it was 138 ng/10^6 cell. Moreover, the “Cell uptake, Mean, U87-MG” value amounted to 197 ng/10^6 cell in experiment [3] (1 hour), 211 ng/10^6 cell in experiment [3] (4 hours) and 183 ng/10^6 cell in experiment [3] (24 hours). The “Cell uptake, Mean, SAS” value was 534 ng/10^6 cell in experiment [4] (1 hour) and 499 ng/10^6 cell in experiment [4] (4 hours).

With `NC(Cc1ccc(OCB(O)O)cc1)C(=O)O` (centres unmarked) [compound 4, 2-amino-3-{4-[(dihydroxyboranyl)methoxy]phenyl}propanoic acid], the “Cell uptake, Mean, B16F10” value amounted to 46.1 ng/10^6 cell in experiment [1] (1 hour), 95.6 ng/10^6 cell in experiment [1] (4 hours) and 101 ng/10^6 cell in experiment [1] (24 hours). For the same molecule, the “Cell uptake, Mean, NIH-3T3” value in experiment [2] (1 hour) was determined as 27.1 ng/10^6 cell; in experiment [2] (4 hours) it was 58.6 ng/10^6 cell; in experiment [2] (24 hours), 66.6 ng/10^6 cell. The entries for the “Cell uptake, Mean, U87-MG” value in experiment [3] (1 hour), in experiment [3] (4 hours) and in experiment [3] (24 hours) were 42.8 ng/10^6 cell, 113 ng/10^6 cell and 191 ng/10^6 cell, respectively. Moreover, the “Cell uptake, Mean, SAS” value in experiment [4] (1 hour) is 445 ng/10^6 cell; in experiment [4] (4 hours), 495 ng/10^6 cell; in experiment [4] (24 hours), 997 ng/10^6 cell.

Consider `N[C@@H](Cc1cccc(CCB(O)O)c1)C(=O)O` [compound 5, (S)-2-amino-3-(3-(2-boronoethyl)phenyl)propanoic acid], for which the results for the “Cell uptake, Mean, B16F10” value in experiment [1] (4 hours) and in experiment [1] (24 hours) were 157 ng/10^6 cell and 262 ng/10^6 cell, respectively. Moreover, the “Cell uptake, Mean, NIH-3T3” value is given as 171 ng/10^6 cell in experiment [2] (1 hour) and 77.2 ng/10^6 cell in experiment [2] (4 hours). For the same molecule, the “Cell uptake, Mean, SAS” value is 225 ng/10^6 cell in experiment [4] (4 hours) and 214 ng/10^6 cell in experiment [4] (24 hours).

In the case of `N[C@@H](Cc1ccc(OCCB(O)O)cc1F)C(=O)O` [compound 6, (2S)-2-amino-3-{4-[2-(dihydroxyboranyl)ethoxy]-2-fluorophenyl}propanoic acid], the “Cell uptake, Mean, B16F10” value in experiment [1] (4 hours) came out at 92.3 ng/10^6 cell. The figures for the “Cell uptake, Mean, NIH-3T3” value in experiment [2] (1 hour) and in experiment [2] (4 hours) were 53.4 ng/10^6 cell and 23.2 ng/10^6 cell, respectively. The results for the “Cell uptake, Mean, U87-MG” value in experiment [3] (1 hour) and in experiment [3] (4 hours) were 160 ng/10^6 cell and 137 ng/10^6 cell, respectively. In addition, the “Cell uptake, Mean, SAS” value in experiment [4] (1 hour) came out at 152 ng/10^6 cell; in experiment [4] (4 hours), 106 ng/10^6 cell; in experiment [4] (24 hours), 46.0 ng/10^6 cell.

Consider `N[C@@H](Cc1ccc(OCB(O)O)c(F)c1)C(=O)O` [compound 10, (2S)-2-amino-3-{4-[(dihydroxyboranyl)methoxy]-3-fluorophenyl}propanoic acid], for which the “Cell uptake, Mean, B16F10” value in experiment [1] (4 hours) turned out to be 442 ng/10^6 cell; in experiment [1] (24 hours), 814 ng/10^6 cell. The “Cell uptake, Mean, NIH-3T3” value in experiment [2] (1 hour) came out at 81.9 ng/10^6 cell; in experiment [2] (4 hours), 204 ng/10^6 cell. Besides, the “Cell uptake, Mean, U87-MG” value is recorded as 295 ng/10^6 cell in experiment [3] (1 hour), 673 ng/10^6 cell in experiment [3] (4 hours) and 681 ng/10^6 cell in experiment [3] (24 hours). For the same molecule, the “Cell uptake, Mean, SAS” value in experiment [4] (1 hour) was determined as 1285 ng/10^6 cell; in experiment [4] (4 hours), 1850 ng/10^6 cell.

Regarding `N[C@@H](Cc1ccc(F)c(OCB(O)O)c1)C(=O)O` [compound 11, (2S)-2-amino-3-{3-[(dihydroxyboranyl)methoxy]-4-fluorophenyl}propanoic acid], the “Cell uptake, Mean, B16F10” value is 50.6 ng/10^6 cell in experiment [1] (1 hour), 121 ng/10^6 cell in experiment [1] (4 hours) and 202 ng/10^6 cell in experiment [1] (24 hours). Besides, the “Cell uptake, Mean, NIH-3T3” value in experiment [2] (1 hour) was 32.4 ng/10^6 cell; in experiment [2] (4 hours), 92.8 ng/10^6 cell; in experiment [2] (24 hours), 122 ng/10^6 cell. For the same molecule, the “Cell uptake, Mean, U87-MG” value in experiment [3] (1 hour) is on record as 113 ng/10^6 cell; in experiment [3] (4 hours), 322 ng/10^6 cell; in experiment [3] (24 hours), 309 ng/10^6 cell. In addition, the “Cell uptake, Mean, SAS” value in experiment [4] (1 hour) is reported as 529 ng/10^6 cell; in experiment [4] (4 hours) it was 454 ng/10^6 cell; in experiment [4] (24 hours), 999 ng/10^6 cell.

Regarding `N[C@@H](Cc1cccc(C2(B(O)O)CC2)c1)C(=O)O` [compound 14, (2S)-2-amino-3-{3-[1-(dihydroxyboranyl)cyclopropyl]phenyl}propanoic acid], the “Cell uptake, Mean, NIH-3T3” value in experiment [2] (4 hours) is 444 ng/10^6 cell.
